Test results: article PMC4151019 (Clinical Pharmacology and Therapeutics, 2014)
Where “and” joins values, the source holds several entries; their conditions need not be identical. Identical values can stand only once. Like-named read-outs stand apart in the source and are kept apart here.

Legend:
CYP2D6 = conditions: read-out: inhibition constant (Ki); cited from earlier work
[1] = assay type: in vivo, human
CYP2B6 = CYP2B6 phenotyping with bupropion; conditions: rifampicin-mediated induction; matrix not stated
[2] = Comparison of probe Cmax and AUC in DBS and plasma; assay type: in vivo, human; conditions: for blood plasma ratio: human, capillary whole blood (DBS) versus venous plasma, oral
[3] = after a single 75-mg bupropion dose; cited from earlier work
CYP1A2 = target: T1, CYP1A2 (Homo sapiens, UniProt P05177); experiment: CYP1A2 phenotyping with caffeine; conditions: par/caf AUClast ratio in DBS
T1 sequence (P05177 1-516): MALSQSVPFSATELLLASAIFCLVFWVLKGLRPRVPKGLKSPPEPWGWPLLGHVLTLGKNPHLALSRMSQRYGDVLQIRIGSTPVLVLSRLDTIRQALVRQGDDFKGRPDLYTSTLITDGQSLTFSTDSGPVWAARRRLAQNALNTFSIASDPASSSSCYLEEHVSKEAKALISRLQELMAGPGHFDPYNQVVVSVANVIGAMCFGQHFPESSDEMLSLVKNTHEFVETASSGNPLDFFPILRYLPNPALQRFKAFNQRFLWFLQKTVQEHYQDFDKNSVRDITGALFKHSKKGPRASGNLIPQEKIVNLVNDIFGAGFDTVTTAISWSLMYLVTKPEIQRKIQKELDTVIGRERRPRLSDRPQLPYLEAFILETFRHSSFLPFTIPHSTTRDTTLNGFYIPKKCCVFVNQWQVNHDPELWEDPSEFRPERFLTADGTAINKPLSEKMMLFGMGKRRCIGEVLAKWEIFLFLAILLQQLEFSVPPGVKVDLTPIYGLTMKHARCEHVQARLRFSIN

[4] = Side effects reported by volunteers; conditions: 10 healthy volunteers
CYP2C19 = CYP2C19 (Homo sapiens, UniProt P33261); conditions: previous studies; cited from earlier work
CYP3A = CYP3A phenotyping with midazolam; conditions: voriconazole 400 mg 2 h before cocktail
[5] = after a 75-mg single dose, from free plasma fraction and liver/plasma ratio
[6] = after a single 25-mg dose, approximately 3 times less than 75 mg

CYP2C19, sequence (P33261 whole entry): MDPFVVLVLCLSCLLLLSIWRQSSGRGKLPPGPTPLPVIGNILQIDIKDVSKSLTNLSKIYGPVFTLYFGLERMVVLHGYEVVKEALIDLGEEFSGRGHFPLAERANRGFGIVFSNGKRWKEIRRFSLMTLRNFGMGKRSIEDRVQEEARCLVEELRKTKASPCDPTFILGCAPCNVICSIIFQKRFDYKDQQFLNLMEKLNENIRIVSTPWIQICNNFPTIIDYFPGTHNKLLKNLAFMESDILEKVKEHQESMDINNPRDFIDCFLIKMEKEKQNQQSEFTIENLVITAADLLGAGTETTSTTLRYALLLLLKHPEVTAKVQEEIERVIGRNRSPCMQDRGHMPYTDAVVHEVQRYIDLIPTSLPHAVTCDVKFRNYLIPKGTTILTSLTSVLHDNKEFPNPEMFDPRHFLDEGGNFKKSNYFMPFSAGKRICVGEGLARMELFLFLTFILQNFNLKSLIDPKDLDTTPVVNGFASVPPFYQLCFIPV

## CC(NC(C)(C)C)C(=O)c1cccc(Cl)c1 (centres unmarked) [Bupropion, bupropion]
CYP2D6
  Ki: 21 µM
[1]; [5]
  maximal estimated liver concentrations: 0.73 µmol/L
[1]; [6]
  maximal estimated liver concentrations: 0.24 µmol/L
CYP2B6
  decrease in bupropion AUC: approximately threefold

## COc1ccc2c(c1)[C@]13CCCC[C@@H]1[C@H](C2)N(C)CC3 [Dextromethorphan, dextromethorphan]
[2]; capillary DBS vs venous plasma
  Cmax and AUC in DBS vs plasma (mean ratio, blood to plasma ratio): higher in DBS

## CC(C(=O)O)c1ccc(-c2ccccc2)c(F)c1 (centres unmarked) [Flurbiprofen, flurbiprofen]
[2]
  blood plasma ratio: ~0.6

## Cc1ncc2n1-c1ccc(Cl)cc1C(c1ccccc1F)=NC2 [Midazolam, midazolam]
[2]
  blood plasma ratio: ~0.6

## CC(NC(C)(C)CO)C(=O)c1cccc(Cl)c1 (centres unmarked) [OH-bup, 4′-hydroxybupropion]
CYP2D6
  Ki: 13.3 µM
[1]; [5]
  maximal estimated liver concentrations: 1.13 µmol/L
[1]; [6]
  maximal estimated liver concentrations: 0.38 µmol/L
[3]
  maximal plasma concentrations: 0.52 µmol/L

## COc1ccc2[nH]c([S+]([O-])Cc3ncc(C)c(OC)c3C)nc2c1 (centres unmarked) [Omeprazole, omeprazole]
[2]
  blood plasma ratio: ~0.6

## CC(NC(C)(C)C)C(O)c1cccc(Cl)c1 (centres unmarked) [erythrohydrobupropion]
CYP2D6
  Ki: 1.7 µM
[1]; [5]
  maximal estimated liver concentrations: 0.16 µmol/L
[1]; [6]
  maximal estimated liver concentrations: 0.05 µmol/L
[3]
  maximal plasma concentrations: 0.03 µmol/L

## COCCCC/C(=N\OCCN)c1ccc(C(F)(F)F)cc1 [fluvoxamine]
CYP1A2
  effect on CYP1A2 activity: potently inhibited
[4]
  reported side effects: four volunteers reported short-lasting troubled vision

## CO[C@H]1/C=C/O[C@@]2(C)Oc3c(C)c(O)c4c(O)c(c(/C=N/N5CCN(C)CC5)c(O)c4c3C2=O)NC(=O)/C(C)=C\C=C\[C@H](C)[C@H](O)[C@@H](C)[C@@H](O)[C@@H](C)[C@H](OC(C)=O)[C@@H]1C [rifampicin]
CYP2C19
  extent of CYP2C19 induction: 4.2 fold and 2.6 fold
CYP1A2
  effect on CYP1A2 activity: slightly, but not significantly, increased

## C[C@H](NC(C)(C)C)[C@@H](O)c1cccc(Cl)c1 [threohydrobupropion]
CYP2D6
  Ki: 5.4 µM
[1]; [5]
  maximal estimated liver concentrations: 1.31 µmol/L
[1]; [6]
  maximal estimated liver concentrations: 0.44 µmol/L
[3]
  maximal plasma concentrations: 0.24 µmol/L

## C[C@@H](c1ncncc1F)[C@](O)(Cn1cncn1)c1ccc(F)cc1F [voriconazole]
CYP3A
  effect on CYP3A activity: significantly inhibited
[4]
  reported side effects: four volunteers reported short-lasting troubled vision
